According to PubChem BioAssay AID1845219 (Molecular Pharmacology Branch, DTP, NCI, 2023):

Test system: SYO-1 tumor spheroids, viability % test/control
Assay: Anticancer human tumor SYO-1 cell line growth inhibition;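 further: spheroids exposed to agents for 7 days before viability read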;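 on viability, T/C: 100% = DMSO vehicle control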
Settings: spheroids with HUVEC and MSC; for viability, T/C: stronger effect = lower value
Method in brief: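 Complex tumor spheroids combined malignant cells with endothelial cells and mesenchymal stem cells. DNA-damaging drugs and DNA repair inhibitors were tested alone and in combination, at half-log dilutions down from clinical Cmax (top 10 microM if Cmax unknown), 0.25% DMSO final.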

[1] = curve of first compound, second compound 0.003 µM

CC1COCCN1c1cc(-c2ccnn2C)c2ccnc(-c3ccn[nH]3)c2n1 (stereo unspecified) + COc1cc2c(cc1O)CCNC21CSC2c3c(OC(C)=O)c(C)c4c(c3C(COC1=O)N1C(O)C3Cc5cc(C)c(OC)c(O)c5C(C21)N3C)OCO4
IC50 (curve of first compound, second compound 30 pM): < 31.6 nM
IC50 (curve of first compound, second compound 94.9 pM): < 31.6 nM
IC50 (curve of first compound, second compound 0.0003 µM): < 31.6 nM
IC50 (curve of first compound, second compound 0.000949 µM): < 31.6 nM
IC50 [1]: < 31.6 nM
viability, T/C (second compound 30 pM, first compound 0.0316 µM): 3.62%
viability, T/C (second compound 30 pM, first compound 0.1 µM): 1.79%
viability, T/C (second compound 30 pM, first compound 0.316 µM): 1.29%
viability, T/C (second compound 30 pM, first compound 1 µM): 0.95%
viability, T/C (second compound 30 pM, first compound 3.16 µM): 0.42%
viability, T/C (second compound 30 pM, first compound 10 µM): 0.48%
viability, T/C (second compound 94.9 pM, first compound 0.0316 µM): 1.83%
viability, T/C (second compound 94.9 pM, first compound 0.1 µM): 1.41%
viability, T/C (second compound 94.9 pM, first compound 0.316 µM): 1.17%
viability, T/C (second compound 94.9 pM, first compound 1 µM): 0.6%
viability, T/C (second compound 94.9 pM, first compound 3.16 µM): 0.3%
viability, T/C (second compound 94.9 pM, first compound 10 µM): 0.41%
viability, T/C (second compound 0.0003 µM, first compound 0.0316 µM): 1.24%
viability, T/C (second compound 0.0003 µM, first compound 0.1 µM): 1.22%
viability, T/C (second compound 0.0003 µM, first compound 0.316 µM): 0.9%
viability, T/C (second compound 0.0003 µM, first compound 1 µM): 0.63%
viability, T/C (second compound 0.0003 µM, first compound 3.16 µM): 0.26%
viability, T/C (second compound 0.0003 µM, first compound 10 µM): 0.29%
viability, T/C (second compound 0.000949 µM, first compound 0.0316 µM): 1.03%
viability, T/C (second compound 0.000949 µM, first compound 0.1 µM): 0.61%
viability, T/C (second compound 0.000949 µM, first compound 0.316 µM): 0.54%
viability, T/C (second compound 0.000949 µM, first compound 1 µM): 0.31%
viability, T/C (second compound 0.000949 µM, first compound 3.16 µM): 0.2%
viability, T/C (second compound 0.000949 µM, first compound 10 µM): 0.19%
viability, T/C (second compound 0.003 µM, first compound 0.0316 µM): 0.11%
viability, T/C (second compound 0.003 µM, first compound 0.1 µM): 0.11%
viability, T/C (second compound 0.003 µM, first compound 0.316 µM): 0.09%
viability, T/C (second compound 0.003 µM, first compound 1 µM): 0.09%
viability, T/C (second compound 0.003 µM, first compound 3.16 µM): 0.1%
viability, T/C (second compound 0.003 µM, first compound 10 µM): 0.16%

CC[C@@]1(O)C(=O)OCc2c1cc1n(c2=O)Cc2cc3c(CN(C)C)c(O)ccc3nc2-1
viability, T/C (compound 0.003 µM): 92.2% [middle of 10 runs]
viability, T/C (compound 0.03 µM): 1.67% [middle of 10 runs]
viability, T/C (compound 0.0949 µM): 1.54% [middle of 10 runs]
viability, T/C (compound 0.3 µM): 1.88% [middle of 10 runs]
IC50 (compound alone, run of 12/02/2019): 5.58 nM [middle of 5 runs]
IC50 (compound alone, run of 12/12/2019): 6.49 nM [middle of 5 runs]

O=C(c1cc(Cc2n[nH]c(=O)c3ccccc23)ccc1F)N1CCN(C(=O)C2CC2)CC1 + CC[C@@]1(O)C(=O)OCc2c1cc1n(c2=O)Cc2cc3c(CN(C)C)c(O)ccc3nc2-1
IC50 [1]: < 94.9 nM
IC50 (curve of first compound, second compound 0.00949 µM): < 94.9 nM
IC50 (curve of first compound, second compound 0.03 µM): < 94.9 nM
IC50 (curve of first compound, second compound 0.0949 µM): < 94.9 nM
IC50 (curve of first compound, second compound 0.3 µM): < 94.9 nM
viability, T/C (second compound 0.003 µM, first compound 0.0949 µM): 40.5%
viability, T/C (second compound 0.003 µM, first compound 0.3 µM): 24.1%
viability, T/C (second compound 0.003 µM, first compound 0.949 µM): 8.02%
viability, T/C (second compound 0.003 µM, first compound 3 µM): 2.93%
viability, T/C (second compound 0.003 µM, first compound 9.49 µM): 2.62%
viability, T/C (second compound 0.003 µM, first compound 30 µM): 2.56%
viability, T/C (second compound 0.00949 µM, first compound 0.0949 µM): 2.56%
viability, T/C (second compound 0.00949 µM, first compound 0.3 µM): 2.35%
viability, T/C (second compound 0.00949 µM, first compound 0.949 µM): 2.18%
viability, T/C (second compound 0.00949 µM, first compound 3 µM): 1.79%
viability, T/C (second compound 0.00949 µM, first compound 9.49 µM): 2.63%
viability, T/C (second compound 0.00949 µM, first compound 30 µM): 2.34%
viability, T/C (second compound 0.03 µM, first compound 0.0949 µM): 1.56%
viability, T/C (second compound 0.03 µM, first compound 0.3 µM): 1.76%
viability, T/C (second compound 0.03 µM, first compound 0.949 µM): 1.49%
viability, T/C (second compound 0.03 µM, first compound 3 µM): 1.64%
viability, T/C (second compound 0.03 µM, first compound 9.49 µM): 1.62%
viability, T/C (second compound 0.03 µM, first compound 30 µM): 1.56%
viability, T/C (second compound 0.0949 µM, first compound 0.0949 µM): 1.91%
viability, T/C (second compound 0.0949 µM, first compound 0.3 µM): 1.81%
viability, T/C (second compound 0.0949 µM, first compound 0.949 µM): 1.99%
viability, T/C (second compound 0.0949 µM, first compound 3 µM): 1.8%
viability, T/C (second compound 0.0949 µM, first compound 9.49 µM): 1.74%
viability, T/C (second compound 0.0949 µM, first compound 30 µM): 1.82%
viability, T/C (second compound 0.3 µM, first compound 0.0949 µM): 2.04%
viability, T/C (second compound 0.3 µM, first compound 0.3 µM): 1.92%
viability, T/C (second compound 0.3 µM, first compound 0.949 µM): 2.02%
viability, T/C (second compound 0.3 µM, first compound 3 µM): 1.92%
viability, T/C (second compound 0.3 µM, first compound 9.49 µM): 1.99%
viability, T/C (second compound 0.3 µM, first compound 30 µM): 2.21%
